What is called Kd is a measure of binding affinity in units of concentration. Broadly, the inhibition is the change of the read-out against control, counted positive when it falls.

The values below come from patent publication US7659299B2, “Compounds inhibiting the binding of sap for treating osteoarthritis” (Pentraxin Therapeutics Limited, priority 2003, dated 2010).

The structures appear in SMILES notation. Several values for one entry are separate records, joined by “and”; a condition that tells them apart may be missing. Equal values may be shown once.

In experiment [1] the target is T1, SAP (Homo sapiens, UniProt P02743). As to the kind of experiment: Isothermal calorimetry: dissociation constants between SAP and compounds. The experiment is classed as binding. As to conditions: replicate measurements, read-out: Kd in micromoles per liter (replicate measurements). An excerpt:
Surface plasmon resonance (SPR) is a low throughput but powerfully informative method to identify compounds that are bound by, or themselves bind to SAP, either in a calcium dependent fashion or independently of calcium, for the purposes of the present invention. For example, low molecular weight compounds that inhibit binding of SAP to its macromolecular ligands, including target ligands relevant to the present invention, can be detected by their effect on the signal generated by fluid phase SAP binding to ligand immobilised on the solid phase (Example A). Furthermore, when SAP itself is immobilised on the solid phase in an SPR instrument, the interaction with it of test molecules provided in the fluid phase generates a signal that can be detected and quantified. Purified SAP immobilized within an SPR instrument gives a quantifiable signal when it is exposed to another molecule that forms a complex with the SAP, and this is distinct from the absence of such a signal if no complex is formed. […] Another low throughput but powerful direct method is isothermal calorimetry that measures the heat of interaction in solution between SAP and test compounds according to the present invention. The binding affinity can be measured precisely as a guide to potential efficacy. Typical results by this method for the dissociation constants, Kd, between SAP and various compounds are as follows: […]
In general terms: Isothermal titration calorimetry measures the heat released or taken up as one component is titrated into another.

Experiment [2] deals with T1, SAP. The experiment in a line: Inhibition of binding of 125I radiolabelled SAP to native long chromatin immobilized in microtitre plates. Details: 5 μl of radiolabelled SAP in TN; from tissue. As to conditions: for inhibition at 0.2 µM / inhibition at 20 µM / inhibition at 200 µM / inhibition at 2000 µM / inhibition at 2 µM: read-out: Percent inhibition of binding of radiolabelled SAP to immobilized native long chromatin.

In experiment [3] the target is T1, SAP. The experiment in a line: Inhibition of binding of 125I radiolabelled SAP to Neisseria meningitidis immobilized in microtitre plates. Set-up: 5 μl of radiolabelled SAP in TN; from tissue. As to conditions: for inhibition at 0.2 µM / inhibition at 2 µM / inhibition at 20 µM / inhibition at 200 µM / inhibition at 2000 µM: read-out: Percent inhibition of binding of radiolabelled SAP to immobilized Neisseria meningitidis. The method, then: A suspension of heat killed Neisseria meningitidis at 1×10^8 organisms per ml in PBS was dispensed to polystyrene microtitre plates at 50 μl volumes per well, and left overnight at 4° C. All wells were then washed three times with 200 μl volumes of PBS containing 0.05% v/v Tween 20, prior to equilibration for 2 min with 0.01M Tris buffered 0.14M NaCl/0.002M CaCl2 at pH 8.0 (TC buffer), containing 4% w/v BSA and 0.05%/v Tween 20 (TCBT buffer). The wells were then emptied before adding to each one the following reagents. […] For background, non-specific, non calcium dependent, binding in the presence of EDTA: 5 μl radiolabelled SAP in TN and 45 μl 0.01M Tris buffered 0.14M NaCl at pH 8.0 containing 11.1 mM EDTA, 4.4% w/v BSA and 0.06% w/v Tween 20 (TEBT buffer) to provide final concentrations of EDTA, 10 mM; BSA, 4%; Tween 20, 0.05%. […] All wells were then incubated at room temperature for 2 h before being washed three times with 200 μl volumes of TCBT, allowed to dry for 1 h at room temperature, and bound radiolabelled SAP was then counted.
The capacity of the compounds tested to inhibit binding of SAP to meningococci is expressed as the percentage by which SAP binding was reduced compared to binding in the absence of any inhibitor (Table 1).

Experiment [4] concerns the target T1, SAP. As to the kind of experiment: Inhibition of binding of 125I radiolabelled SAP to influenza virus immobilized in microtitre plates. Details: 5 μl of radiolabelled SAP in TN; from tissue. As to conditions: for inhibition at 0.2 µM / inhibition at 2 µM / inhibition at 20 µM / inhibition at 200 µM / inhibition at 2000 µM: read-out: Percent inhibition of binding of radiolabelled SAP to immobilized influenza virus. The method, then: A concentrated suspension of purified influenza virus A/Shanghai/24/90 at 10 mg protein per ml in PBS was diluted 1:50 in PBS and then dispensed to polystyrene microtitre plates at 50 μl volumes per well, and left overnight at 4° C. All wells were then emptied before blocking by addition to each well of 200 μl of 2% w/v BSA in PBS and incubation at room temperature for 1 h. All wells were then washed three times with 200 μl volumes of PBS containing 0.05% v/v Tween 20, prior to equilibration for 2 min with 0.01M Tris buffered 0.14M NaCl/0.002M CaCl2 at pH 8.0 (TC buffer), containing 4% w/v BSA and 0.05% v/v Tween 20 (TCBT buffer). The wells were then emptied before adding to each one the following reagents. […] For background, non-specific, non calcium dependent, binding in the presence of EDTA: 5 μl radiolabelled SAP in TN and 45 μl 0.01M Tris buffered 0.14M NaCl at pH 8.0 containing 11.1 mM EDTA, 4.4% w/v BSA and 0.06% w/v Tween 20 (TEBT buffer) to provide final concentrations of EDTA, 10 mM; BSA, 4%; Tween 20, 0.05%. […] All wells were then incubated at room temperature for 2 h before being washed three times with 200 μl volumes of TCBT, allowed to dry for 1 h at room temperature, and bound radiolabelled SAP was then counted. The compounds tested in the experiment shown here were the same as those specified in Example B above.
The capacity of the compounds tested to inhibit binding of SAP to the immobilised influenza virus is expressed as the percentage by which SAP binding was reduced compared to binding in the absence of any inhibitor (Table 3).

T1 sequence (P02743 20-223): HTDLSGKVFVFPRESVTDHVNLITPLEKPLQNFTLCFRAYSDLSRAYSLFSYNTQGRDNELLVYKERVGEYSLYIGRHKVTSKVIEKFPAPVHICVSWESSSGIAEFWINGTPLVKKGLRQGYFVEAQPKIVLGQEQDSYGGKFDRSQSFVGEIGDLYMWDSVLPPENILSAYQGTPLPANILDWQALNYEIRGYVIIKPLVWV

Regarding `CC(=O)N1CCC[C@@H]1C(=O)O` [N-acetyl-D-proline], the Kd on SAP [1] was 16 µM and 23 µM and 17 µM.
`COc1cccc(OCC(=O)N2CCC[C@@H]2C(=O)O)c1OCC(=O)N1CCC[C@@H]1C(=O)O` [Ro-64-2845, (R)-1-[[2-[2-[(R)-2-carboxy-pyrrolidin-1-yl]-2-oxo-ethoxy]-3-methoxy-phenoxy]-acetyl]-pyrrolidine-2-carboxylic acid]: the results for the inhibition at 0.2 µM on SAP [2] (compound 200 nM), at SAP [3] (compound 200 nM) and at SAP [4] (compound 200 nM) were 11%, 19% and 16%, respectively. The values for the inhibition at 20 µM at SAP [2] (compound 20 μM), at SAP [3] (compound 20 μM) and on SAP [4] (compound 20 μM) were 75%, 92% and 62%, respectively. The inhibition at 200 µM at SAP [2] (compound 200 μM) turned out to be 96%; at SAP [3] (compound 200 μM), 93%; on SAP [4] (compound 200 μM) it was 77%. In addition, the inhibition at 2000 µM was 100% on SAP [2] (compound 2 mM) and 89% at SAP [4] (compound 2 mM). Moreover, the inhibition at 2 µM on SAP [3] (compound 2 μM) came out at 74%; on SAP [4] (compound 2 μM), 52%.
Consider `Cc1c(OCC(=O)N2CCC[C@@H]2C(=O)O)cccc1OCC(=O)N1CCC[C@@H]1C(=O)O` [Ro-64-2848, (R)-1-[[3-[2-[(R)-1-Carboxy-pyrrolidin-1-yl]-2-oxo-ethoxy]-2-methyl-phenoxy]-acetyl]-pyrrolidine-2-carboxylic acid], for which the “Percent inhibition of binding of radiolabelled SAP to immobilized native long chromatin” value at SAP [2] (compound 200 nM) was 0%; on SAP [2] (compound 2 μM) it was 22%; on SAP [2] (compound 20 μM) it was 65%; on SAP [2] (compound 200 μM) it was 95%; on SAP [2] (compound 2 mM), 98%. The “Percent inhibition of binding of radiolabelled SAP to immobilized Neisseria meningitidis” value at SAP [3] (compound 200 nM) was determined as 1%; on SAP [3] (compound 2 μM) it was 64%; at SAP [3] (compound 20 μM) it was 93%; at SAP [3] (compound 200 μM), 100%; on SAP [3] (compound 2 mM) it was 100%. Also, the “Percent inhibition of binding of radiolabelled SAP to immobilized influenza virus” value worked out at 24% at SAP [4] (compound 200 nM); 65% at SAP [4] (compound 2 μM); 81% at SAP [4] (compound 20 μM); 81% at SAP [4] (compound 200 μM); 85% on SAP [4] (compound 2 mM).
As for `O=C(O)[C@H]1CCCN1C(=O)Cc1cc(O)c(CC(=O)N2CCC[C@@H]2C(=O)O)cc1O` [Ro-64-4383, (R)-1-[[2,5-Dihydroxy-4-[2-[(R)-2-carboxy-pyrrolidin-1-yl]-2-oxo-ethyl]-phenyl]-acetyl]-pyrrolidine-2-carboxylic acid], the inhibition at 0.2 µM at SAP [2] (compound 200 nM) was 0%; on SAP [3] (compound 200 nM), 1%; on SAP [4] (compound 200 nM), 24%. Besides, the inhibition at 2 µM on SAP [2] (compound 2 μM) turned out to be 45%; at SAP [3] (compound 2 μM) it was 76%; at SAP [4] (compound 2 μM), 57%. Moreover, the values for the inhibition at 20 µM at SAP [2] (compound 20 μM), on SAP [3] (compound 20 μM) and at SAP [4] (compound 20 μM) were 78%, 95% and 80%, respectively. The figures for the inhibition at 200 µM on SAP [2] (compound 200 μM), at SAP [3] (compound 200 μM) and at SAP [4] (compound 200 μM) were 88%, 100% and 89%, respectively. Further, the inhibition at 2000 µM on SAP [2] (compound 2 mM) is 97%; at SAP [3] (compound 2 mM) it was 100%; on SAP [4] (compound 2 mM), 89%.
`O=C(O)[C@H]1CCCN1C(=O)COc1cccc2c(OCC(=O)N3CCC[C@@H]3C(=O)O)cccc12` [Ro-64-5445, (R)-1-[[5-[2-[(R)-2-Carboxy-pyrrolidin-1-yl]-2-oxo-ethoxy]-naphthalen-1-yloxy]-acetyl]-pyrrolidine-2-carboxylic acid]: the inhibition at 0.2 µM at SAP [2] (compound 200 nM) was 12%; at SAP [3] (compound 200 nM), 30%; on SAP [4] (compound 200 nM) it was 23%. The inhibition at 2 µM at SAP [2] (compound 2 μM) worked out at 51%; at SAP [3] (compound 2 μM), 72%. For the same compound, the inhibition at 20 µM at SAP [2] (compound 20 μM) turned out to be 74%; at SAP [3] (compound 20 μM), 81%; on SAP [4] (compound 20 μM), 64%. Further, the inhibition at 200 µM is 82% at SAP [2] (compound 200 μM), 100% at SAP [3] (compound 200 μM) and 76% at SAP [4] (compound 200 μM). Also, the results for the inhibition at 2000 µM at SAP [2] (compound 2 mM), on SAP [3] (compound 2 mM) and on SAP [4] (compound 2 mM) were 96%, 100% and 80%, respectively.
As to `O=C(O)[C@H]1CCCN1C(=O)Cc1ccc(CC(=O)N2CCC[C@@H]2C(=O)O)c2ccccc12` [Ro-64-5607, (R)-1-[[4-[2-[(R)-2-Carboxy-pyrrolidin-1-yl]-2-oxo-ethyl]-naphthalen-1-yl]-acetyl]-pyrrolidine-2-carboxylic acid], the figures for the inhibition at 0.2 µM on SAP [2] (compound 200 nM), on SAP [3] (compound 200 nM) and at SAP [4] (compound 200 nM) were 15%, 13% and 4%, respectively. For the same compound, the inhibition at 2 µM at SAP [2] (compound 2 μM) came out at 35%; on SAP [3] (compound 2 μM), 69%; on SAP [4] (compound 2 μM), 64%. Also, the figures for the inhibition at 20 µM on SAP [2] (compound 20 μM), at SAP [3] (compound 20 μM) and at SAP [4] (compound 20 μM) were 77%, 89% and 95%, respectively. The inhibition at 200 µM was 96% at SAP [2] (compound 200 μM) and 94% at SAP [4] (compound 200 μM). The figures for the inhibition at 2000 µM on SAP [2] (compound 2 mM) and on SAP [4] (compound 2 mM) were 100% and 98%, respectively.
